# From patent publication US20080025960A1, “Detergents with stabilized enzyme systems” (priority 2006, published 2008)
# Key:
# choline oxidase [1] = biological target: T1, choline oxidase (Arthrobacter globiformis, UniProt Q7X2H8); experiment: H2O2 in wash liquor with choline oxidase, choline chloride and inhibitor; type: biochemical; settings: 2 mM choline chloride, 0.02U enzyme, 0.4 mM AMP inhibitor
# T1 sequence (Q7X2H8 1-546): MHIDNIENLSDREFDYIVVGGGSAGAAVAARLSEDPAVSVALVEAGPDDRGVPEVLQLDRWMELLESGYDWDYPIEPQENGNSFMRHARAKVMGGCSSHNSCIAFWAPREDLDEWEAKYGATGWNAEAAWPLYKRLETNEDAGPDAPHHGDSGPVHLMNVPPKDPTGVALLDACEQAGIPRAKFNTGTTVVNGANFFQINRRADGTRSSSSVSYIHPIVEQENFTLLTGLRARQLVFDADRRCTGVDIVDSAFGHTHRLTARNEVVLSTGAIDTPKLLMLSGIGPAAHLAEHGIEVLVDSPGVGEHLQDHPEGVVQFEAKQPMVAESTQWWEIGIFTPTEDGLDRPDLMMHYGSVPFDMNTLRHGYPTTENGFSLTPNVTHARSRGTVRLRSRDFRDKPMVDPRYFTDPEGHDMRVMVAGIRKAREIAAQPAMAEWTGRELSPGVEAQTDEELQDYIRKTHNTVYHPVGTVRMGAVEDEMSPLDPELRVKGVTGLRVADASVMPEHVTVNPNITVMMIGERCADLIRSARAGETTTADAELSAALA
# Experimental: (§1) The experiments were conducted as described in Example 1. Choline oxidase produces two moles of H2O2 per mole of choline. The results obtained in these experiments confirmed that choline oxidase was stable in AATCC detergent over 24 hour period tested in presence of choline and inhibitors. […] Upon dilution in wash liquor, detergent containing choline oxidase, choline chloride and an inhibitor (e.g., sodium hydrogen sulfite or 2-amino,2-methyl,1-propanol) produced H2O2 over time, as indicated in Table 5.
# choline oxidase [2] = biological target: T1, choline oxidase; experiment: H2O2 in control buffer or AATCC liquid detergent stock with choline oxidase, choline and inhibitor; type: biochemical; settings: for H2O2 PPM: 1 M choline
# Experimental: In this Example, experiments conducted to assess the stabilization of choline oxidase in the presence of its substrate (i.e., choline) and an inhibitor (i.e., sodium bisulfite and 2-amino,2-methyl,1-propanol) is described. In these experiments, AATCC standard detergent was used.
# as §1
# glucose oxidase [3] = biological target: T2, glucose oxidase (Aspergillus niger, UniProt P13006); experiment: Premature hydrogen peroxide generation by glucose oxidase in control buffer or AATCC liquid detergent stock (as is) with glucose and inhibitor, dipsticks; type: biochemical; settings: 2 M hydroxylamine; detergent containing 1 M glucose and 500 PPM glucose oxidase
# T2 construct: purchased Genencor OXYGO L-5000
# glucose oxidase [4] = biological target: T2, glucose oxidase; experiment: as above; type: biochemical; settings: 1 M inhibitor; same methods as Examples 1-4
# From the text: In this Example, experiments conducted to assess the stabilization of glucose oxidase in the presence of its substrate (i.e., glucose) and an inhibitor (i.e., sodium hydrogen sulfite) is described. In these experiments, AATCC standard detergent (American Association of Textile Chemists and Colorists Heavy Duty Liquid detergent version 2003 without brightener; key components include linear alkane sulfonate, alcohol ethoxylate, propanediol, citric acid, fatty acid, castic soda and water; purchased from TestFabrics) was used.
# In these experiments, 100 mM Tris pH 8.3, with 0.005% TWEEN®-100 surfactant used as a positive control. […] Three two-ml tubes were weighed with 0.990 g of AATCC detergent (lot # 01282004) and another three tubes with 0.990 g of control buffer. Then, 90 mg (500 mM) of glucose substrate were added to all of the tubes. Next, 100, 50, and 10 mM sodium hydrogen sulfite (MW 106.1) were added to each tube respectively, including the control buffer and AATCC detergent control. All of the tubes were placed on a rotary plate for an hour to allow good mixing and solubilization of glucose into the detergent. Then, 500 PPM (0.5 mg, 14.88 ul) glucose oxidase (OXYGO™ L-5000, 5379 U/ml; 33.6 mg/ml; Genencor) was added to six 2-ml tubes (three with glucose/bisulfite containing control buffers and three with glucose/bisulfite containing AATCC detergent). All of the tubes were then set on the rotary plate (60 rpm) at room temperature. Hydrogen peroxide production was measured using dipsticks (peroxidase/ABTS—Baker Testrips;Baker) at various times—t=0+minutes, 12 minutes, and 30 minutes. The tube containing 100 mM bisulfite with glucose, glucose oxidase in liquid detergent was further monitored for premature generation of hydrogen peroxide further over a period of time starting at 1 hr, 12 hr, 7 days, 12 days and up to 21 days.
# In these experiments, 100 mM Tris pH 8.3, with 0.005% TWEEN®-100 surfactant was used as a positive control. […] Three two-ml tubes were weighed with 0.990 g of AATCC detergent (lot # 01282004) and another three tubes with 0.990 g of control buffer.
# Three two-ml tubes containing 0.990 g of AATCC detergent (lot # 01282004) and another three tubes with 0.990 g of control buffer were weighed. Then, 90 mg (500 mM) glucose substrate was added to each tube. Then, 100, 50, and 10 mM sodium metabisulfite were added to each tube respectively (i.e., both control buffer and AATCC detergent-containing tubes). All of the tubes were placed on a rotary plate for an hour to allow good mixing and solubilization of glucose into the detergent. Next, 500 PPM (0.5 mg, 14.88 ul) glucose oxidase (OXYGO™ L-5000, 5379 U/ml; 33.6 mg/ml; Genencor) was added to six 2-ml tubes (three with glucose/metabisulfite containing control buffers and three with glucose/metabisulfite containing AATCC detergent). All of the tubes were then set on the rotary plate (60 rpm) at room temperature. H2O2 production was measured using dipsticks (peroxidase/ABTS), as described in Examples 1 and 2, for t=0+ minutes, 12 minutes, and 30 minutes. The tube containing 100 mM bisulfite with glucose, glucose oxidase in liquid detergent was further monitored for premature generation of hydrogen peroxide further over a period of time starting at 1 hr, 12 hr, 7 days, 12 days and up to 21 days.
# alcohol oxidase [5] = biological target: T3, alcohol oxidase (Pichia angusta, UniProt P04841); experiment: Hydrogen peroxide concentration in control buffer or AATCC liquid detergent stock (as is) with alcohol oxidase, ethanol and inhibitor; type: biochemical, Hansunela sp.; settings: for H2O2 PPM: as is, 1 M ethanol, 10U enzyme, 100 mM inhibitor
# T3 construct: purchased Sigma
# Experimental: In these experiments, the stability of alcohol oxidase obtained from Hansunela sp., (100 U/ml. 22 U/mg, 13 mg total solid in vial, 7.7 U/mg solid; Sigma) in AATCC liquid detergent was tested. In these experiments, 10 U of the alcohol oxidase were used in liquid detergent stock for each experiment. For testing, 1M ethanol was mixed into the detergent (46 mg ethanol in 990 mg detergent). […] The experiments were conducted as described above in Examples 1 and 3.
# alcohol oxidase [6] = biological target: T3, alcohol oxidase; experiment: Hydrogen peroxide concentration in wash liquor with alcohol oxidase, ethanol and inhibitor; type: biochemical, Hansunela sp.; settings: 2 mM ethanol, 0.02U enzyme, 0.2 mM inhibitor
# Experimental: The stability and activity of the alcohol oxidase enzyme (described in Example 5) in AATCC liquid detergent (Sigma, 100 U/ml. 22 U/mg, 13 mg total solid in vial, 7.7 U/mg solid) was tested upon dilution into wash liquor. In these experiments, 10 U of alcohol oxidase were used in liquid detergent stock for each experiment. In addition, 1M ethanol (substrate) was mixed in detergent (46 mg ethanol in 990 mg detergent). […] In these experiments, 10 ul of final detergent mix or control mix were added to 5 ml of wash liquor. The same methods as described in Examples 2 and 4 were used in these experiments.
# T2 sequence (P13006 17-605): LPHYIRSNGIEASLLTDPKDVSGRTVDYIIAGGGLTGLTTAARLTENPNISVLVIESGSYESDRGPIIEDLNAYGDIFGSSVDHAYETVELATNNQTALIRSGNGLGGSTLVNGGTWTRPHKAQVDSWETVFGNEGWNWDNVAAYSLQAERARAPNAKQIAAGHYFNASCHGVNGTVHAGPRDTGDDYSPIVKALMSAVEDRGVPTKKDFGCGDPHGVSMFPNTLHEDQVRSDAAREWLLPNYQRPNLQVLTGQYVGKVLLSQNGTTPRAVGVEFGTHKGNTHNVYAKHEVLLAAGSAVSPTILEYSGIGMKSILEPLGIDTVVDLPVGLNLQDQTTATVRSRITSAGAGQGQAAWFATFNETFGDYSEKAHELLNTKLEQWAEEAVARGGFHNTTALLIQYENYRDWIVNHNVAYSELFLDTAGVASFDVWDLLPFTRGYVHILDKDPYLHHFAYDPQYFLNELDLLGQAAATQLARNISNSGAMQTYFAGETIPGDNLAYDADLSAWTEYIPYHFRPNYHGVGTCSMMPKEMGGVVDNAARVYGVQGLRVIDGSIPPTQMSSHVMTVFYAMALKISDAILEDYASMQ
# T3 sequence (P04841 whole entry): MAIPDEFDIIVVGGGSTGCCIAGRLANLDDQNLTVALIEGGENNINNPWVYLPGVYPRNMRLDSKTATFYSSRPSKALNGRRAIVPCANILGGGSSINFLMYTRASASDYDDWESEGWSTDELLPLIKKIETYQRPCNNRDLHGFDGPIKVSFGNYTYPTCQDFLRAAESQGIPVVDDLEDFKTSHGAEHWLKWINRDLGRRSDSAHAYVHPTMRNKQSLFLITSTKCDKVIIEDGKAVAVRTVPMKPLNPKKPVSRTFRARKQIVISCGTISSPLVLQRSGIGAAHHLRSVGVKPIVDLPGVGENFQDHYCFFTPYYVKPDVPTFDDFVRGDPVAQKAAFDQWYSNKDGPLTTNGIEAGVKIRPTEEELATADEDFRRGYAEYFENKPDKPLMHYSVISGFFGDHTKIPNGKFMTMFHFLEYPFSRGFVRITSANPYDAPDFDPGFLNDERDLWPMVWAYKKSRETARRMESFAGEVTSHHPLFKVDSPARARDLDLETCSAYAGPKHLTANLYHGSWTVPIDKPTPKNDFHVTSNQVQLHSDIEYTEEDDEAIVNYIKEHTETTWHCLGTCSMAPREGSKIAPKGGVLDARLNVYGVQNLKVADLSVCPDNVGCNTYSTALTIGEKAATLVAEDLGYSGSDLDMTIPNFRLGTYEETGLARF
smiles,measurement,setting,value
"CC(C)(N)CO [AMP, 2-amino,2-methyl,1-propanol]",H2O2 PPM,"choline oxidase [1]; AATCC Detergent, T = 0+",1 PPM
same,H2O2 PPM,"choline oxidase [1]; AATCC Detergent, T = 12 min",3 PPM
same,H2O2 PPM,"choline oxidase [1]; AATCC Detergent, T = 30 min",3 PPM
same,H2O2 PPM,"choline oxidase [1]; AATCC Detergent, T = 60 min",10 PPM
same,H2O2 PPM,"choline oxidase [1]; Control Buffer, T = 0+",1 PPM
same,H2O2 PPM,"choline oxidase [1]; Control Buffer, T = 12 min",3 PPM
same,H2O2 PPM,"choline oxidase [1]; Control Buffer, T = 30 min",3 PPM
same,H2O2 PPM,"choline oxidase [1]; Control Buffer, T = 60 min",10 PPM
same,H2O2 PPM,"choline oxidase [2]; AATCC Detergent, T = 0+, 1U enzyme, 100 mM AMP inhibitor",0 PPM
same,H2O2 PPM,"choline oxidase [2]; AATCC Detergent, T = 12 min, 1U enzyme, 100 mM AMP inhibitor",1 PPM
same,H2O2 PPM,"choline oxidase [2]; AATCC Detergent, T = 12 min, 1U or 10U enzyme, 200 mM AMP (pH ~9.3)",0 PPM
same,premature regeneration of H2O2 in detergent,choline oxidase [2]; AMP used at 200 mM,stops premature regeneration of H2O2
same,H2O2 PPM,"choline oxidase [2]; Control Buffer, T = 0+, 1U enzyme, 100 mM AMP inhibitor",0 PPM
same,H2O2 PPM,"choline oxidase [2]; Control Buffer, T = 12 min, 1U enzyme, 100 mM AMP inhibitor",1 PPM
same,H2O2 PPM,"choline oxidase [2]; Control Buffer, T = 12 min, 1U or 10U enzyme, 200 mM AMP (pH ~9.3)",0 PPM
same,character of choline oxidase inhibition,choline oxidase [2]; sodium hydrogen sulfite at 100 mM concentration tested,reversible inhibitor
NO [hydroxylamine],stabilization of premature hydrogen peroxide generation,glucose oxidase [3],can stabilize premature hydrogen peroxide generation
[F-].[Na+] [sodium fluoride],glucose oxidase inhibition,glucose oxidase [4],small degree of glucose oxidase inhibition
O=S(O)(O)=S [sodium thiosulfate],glucose oxidase inhibition,glucose oxidase [4],small degree of glucose oxidase inhibition
same,character of alcohol oxidase inhibition,alcohol oxidase [5]; 100 mM concentration tested,week inhibitor
same,H2O2 PPM,"alcohol oxidase [5]; AATCC Detergent, T = 0+",3 PPM
same,H2O2 PPM,"alcohol oxidase [5]; AATCC Detergent, T = 120 min",(>10--thiosulfate) PPM
same,H2O2 PPM,"alcohol oxidase [5]; Control Buffer, T = 0+",˜10 PPM
same,H2O2 PPM,"alcohol oxidase [5]; Control Buffer, T = 120 min",0 PPM
same,H2O2 PPM,"alcohol oxidase [6]; AATCC Detergent, T = 0+",0 PPM
same,H2O2 PPM,"alcohol oxidase [6]; AATCC Detergent, T = 30 min",0 PPM
same,H2O2 PPM,"alcohol oxidase [6]; AATCC Detergent, T = 120 min",>3 (thiosulfate) PPM
same,H2O2 PPM,"alcohol oxidase [6]; Control Buffer, T = 0+",0 PPM
same,H2O2 PPM,"alcohol oxidase [6]; Control Buffer, T = 30 min",0 PPM
